Test system: HSV-1
Assay: HSV-1-GFP infection of human PILR-transfected CHO-K1 cells with acyclovir as control (Example 3), GFP expression 18 hours later
Format: cell-based
Details: acyclovir 100 μM or 500 μM, or mAb 10 μg/ml, added 30 minutes before virus; FIG. 10
Protocol: HSV-1-GFP of 1.5×10^6 PFU was added to 5×10^4 CHO-K1 cells to which human PILR had been transfected, and expression of GFP was analyzed 18 hours later.
30 minutes before adding the virus, 100 μM or 500 μM of acyclovir, or 10 μg/ml of anti-human PILR mAb (M4) was added, and a ratio of infection with the virus was shown in FIG. 10 with a ratio of infection of cells to which nothing had been added (“control” in FIG. 10) being 100%.

## Nc1nc2c(ncn2COCCO)c(=O)[nH]1 [acyclovir]
  inhibition of infection with HSV (ratio of infection, control = 100%): did not inhibit infection
